Source: patent US20150065717A1, “NIPECOTIC ACID DERIVATIVE AND USE THEREOF FOR MEDICAL PURPOSES” (Toray Industries, Inc., priority 2012, published 2015)

Experiments:
[1] = test system: rat monocrotaline-administered pulmonary hypertension model; assay: Rat monocrotaline-administered pulmonary hypertension model, administration from advanced stage; type: in vivo, rat (Wistar strain); settings: 10 mg/kg orally once per day for 18 or 19 days from Day 10 after monocrotaline; t-test p<0.05; FIG. 7
Description: Rats (Wistar strain, male, 5 weeks old; JAPAN SLC, Inc.) with pulmonary hypertension induced by subcutaneous administration of an aqueous monocrotaline (Sigma Corporation) solution (60 mg/kg) to the back were provided as “group with induced pulmonary hypertension”. On the other hand, rats to which water for injection was similarly administered were provided as “normal group”.
To rats in the group with induced pulmonary hypertension, Example Compound 1 (3 or 10 mg/kg) or a positive control compound tadalafil (10 mg/kg) was orally administered once per day. Administration of Example Compound 1 (3 or 10 mg/kg) was carried out for 18 or 19 days from Day 10 after the administration of monocrotaline. Administration of tadalafil (10 mg/kg) was carried out for 28 or 29 days from the day of administration of monocrotaline. […]
On the last day of administration of the test compound, blood was collected from the abdominal vena cava of each rat under anesthesia, and the rat was then euthanized, followed by removal of the heart for measurement of the wet weights of the right ventricle, left ventricle and septum to determine the right ventricular weight ratio (right ventricular weight/(septum weight+left ventricular weight)). The 14,15-DHET concentration in the collected blood was measured by the ELISA method. […]

[2] = test system: rat monocrotaline-administered pulmonary hypertension model; assay: Action on systemic blood pressure in rat monocrotaline-administered pulmonary hypertension model, single dose; type: in vivo, rat (SD strain); settings: single oral dose of 10 mg/kg on day 9 after monocrotaline; Hour 1, 2, 3, 4, 5 and 6 after administration
Description: Example Compound 1 was administered to monocrotaline-administered pulmonary hypertension model rats in a single dose, and the action of the nipecotic acid derivative (I) or a pharmaceutically acceptable salt thereof on the systemic blood pressure from immediately after the administration was evaluated.
Pulmonary hypertension was induced in Rats (SD strain, male, 11 weeks old; Charles River Laboratories Japan, Inc.) by subcutaneous administration of an aqueous monocrotaline (Sigma Corporation) solution (60 mg/kg) to the back.
On Day 7 after administration of monocrotaline, the rats with induced pulmonary hypertension were anesthetized, and hair in the femoral region and the nape was removed, followed by disinfection of the operative field using Isodine solution. […] The blood pressure was analyzed after amplification by Blood Pressure Amplifier, and the heart rate was analyzed via Heart Rate Counter using the pulse waveform as a trigger. […] From immediately after administration of Example Compound 1 or 0.5% aqueous methyl cellulose solution supplemented with 0.5% Tween 80, the mean systemic blood pressure was measured at Hour 1, 2, 3, 4, 5 and 6 after administration.

## CCC(=O)NC1(C(=O)N2CCC[C@@H](C(=O)NCc3ccc(C#N)cc3OC(F)(F)F)C2)CCC1 [Example Compound 1, (R)—N-(4-cyano-2-(trifluoromethoxy)benzyl)-1-(1-propionamidocyclobutanecarbonyl)piperidine-3-carboxamide]
[1]
  right ventricular weight ratio vs pulmonary hypertension control group: statistically significantly lower
[2]
  mean systemic blood pressure vs pulmonary hypertension control group: no significant difference
